The values below come from paper PMC11335206, “Exploring oak processionary caterpillar induced lepidopterism (part 2): ex vivo bio-assays unmask the role of TRPV1” (Cellular and Molecular Life Sciences: CMLS, 2024).

Positions of bridges follow the written chain, without caps; N, C: chain ends. No end group written: not given here.

One data set relates to hTRPA1. Nature of the data set: TEVC electrophysiology on TRPA1 expressing oocytes. It is filed as cell-based, human. Particulars: 1 µM A967079; 50 µM mustard oil; holding −90 mV; n ≥ 3.
For data set [1], the system named is individuals with atopic dermatitis. Particulars: topical, phase III, ref [36]; cited from earlier work. From the text: The results are consistent with the discoveries presented by Yao et al. (2019) regarding Latoia consocia, a caterpillar indigenous to South-West China. […] Despite substantial investments in the quest for TRPV1 antagonists, yet no antagonist is available on the market. Presently, a ...

The next data set deals with hH4R. Nature of the data set: TEVC on H4R-GIRK1/GIRK2-RGS4 oocytes. It is filed as cell-based, human.
For data set [2] the following is noted: ref [28], cited from earlier work.
A further data set has as its target hTRPV1 (Homo sapiens, UniProt Q8NER1). Nature of the data set: TEVC electrophysiology on TRPV1 expressing oocytes. Format: cell-based. An excerpt:
We used Xenopus laevis oocytes as a heterologous expression system in electrophysiological experiments to express ligand-gated and voltage-gated ion channels. Molecular biology techniques (subcloning, transformation, linearization and transcription) were used to make RNA encoding: (1) transient receptor potential channel (hTRPV1 and hTRPA1), (2) histamine receptors (hH1R and hH4R), (3) bradykinin receptor (hB2R), (4) nicotinic acetylcholine receptor (adult muscle type hα1β1δε nAChR and neuronal hα7 nAChR), (5) acid-sensing ion channel (rASIC1a), (6) voltage-gated sodium channels (rNav1.1, rNav1.2, rNav1.3, rNav1.4, mNav1.6 and hNav1.8) and their auxiliary subunits rβ1 and hβ1 and (7) potassium channels (hKv1.1, hKv1.2, hKv1.3, hKv1.4, hKv1.5, hKv1.6, hKv3.1, hKv10.1, mGIRK1, mGIRK2 and mIRK1). Plasmids corresponding to each channel or receptor underwent linearization using specific restriction enzymes and subsequent transcription with the T3, T7, or SP6 mMESSAGE mMACHINE transcription kit (Ambion, USA). Depending on the channel type, defolliculated oocytes were injected with 10–50 nL of cRNA at a concentration of 1 ng/nL using a micro-injector (Nanoject II; Drummond Scientific Company, USA). Electrophysiological experiments were conducted following cRNA injection, with an incubation period of 1–5 days at 16 °C in ND96 buffer.

Data set [3] relates to TRPV1. On the set-up: method as in earlier work. To be noted: Latoia consocia; ref [35] Yao et al. (2019); cited from earlier work.
In a further data set the test system is hH1R. It is filed as cell-based, human.
Data set [4] deals with histamine-N-methyltransferase. Particulars: ref [47]; cited from earlier work. From the text: (§1) Putrescine is a small aliphatic polyamine synthesized by ornithine decarboxylase (ODC) and found in the venom of other animals. Under physiological conditions, putrescine undergoes complete protonation. This property enables putrescine to interact with negatively charged macromolecules, such as DNA, RNA, ATP, phospholipids, or proteins. As a result, it plays a significant role in v ...

Data set [5] concerns TRPV1. Particulars: HEK293 cells, ref [44] Ahern et al. (2005), cited from earlier work.
From the text: as §1

The test system of a further data set is rat paw. Particulars: 10 µmol/paw, subcutaneous injection, ref [46]; cited from earlier work.
From the text: as §1

The subject of a further data set is hB2R. Nature of the data set: TEVC on B2R expressing oocytes. It is filed as cell-based, human. To be noted: 1 µM bradykinin; ramp −120 to +70 mV from −20 mV.

Chain of hTRPV1 (Q8NER1 whole entry): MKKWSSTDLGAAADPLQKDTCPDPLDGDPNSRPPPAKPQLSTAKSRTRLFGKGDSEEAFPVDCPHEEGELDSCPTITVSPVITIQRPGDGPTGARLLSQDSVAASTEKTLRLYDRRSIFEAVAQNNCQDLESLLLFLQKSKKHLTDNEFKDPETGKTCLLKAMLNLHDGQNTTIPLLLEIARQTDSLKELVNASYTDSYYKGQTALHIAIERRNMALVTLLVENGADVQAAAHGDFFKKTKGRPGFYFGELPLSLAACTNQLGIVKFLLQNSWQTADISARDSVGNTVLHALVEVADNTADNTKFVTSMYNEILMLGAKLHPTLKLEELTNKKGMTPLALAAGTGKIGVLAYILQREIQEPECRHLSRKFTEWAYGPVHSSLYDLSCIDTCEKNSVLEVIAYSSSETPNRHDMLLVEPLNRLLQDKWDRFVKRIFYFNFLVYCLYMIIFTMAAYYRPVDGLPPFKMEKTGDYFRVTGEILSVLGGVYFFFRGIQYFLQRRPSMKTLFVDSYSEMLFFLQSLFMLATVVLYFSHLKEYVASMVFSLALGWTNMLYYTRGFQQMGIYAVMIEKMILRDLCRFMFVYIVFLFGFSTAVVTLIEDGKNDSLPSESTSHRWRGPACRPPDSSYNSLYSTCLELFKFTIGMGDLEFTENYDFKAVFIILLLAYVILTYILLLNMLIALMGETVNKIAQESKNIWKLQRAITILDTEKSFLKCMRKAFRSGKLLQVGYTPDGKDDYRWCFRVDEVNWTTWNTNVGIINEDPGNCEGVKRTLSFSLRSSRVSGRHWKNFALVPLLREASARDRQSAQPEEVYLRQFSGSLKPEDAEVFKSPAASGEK
Procedure for hB2R: (§2) We used Xenopus laevis oocytes as a heterologous expression system in electrophysiological experiments to express ligand-gated and voltage-gated ion channels. […] Plasmids corresponding to each channel or receptor underwent linearization using specific restriction enzymes and subsequent transcription with the T3, T7, or SP6 mMESSAGE mMACHINE transcription kit (Ambion, USA). Depending on the channel type, defolliculated oocytes were injected with 10–50 nL of cRNA at a concentration of 1 ng/nL using a micro-injector (Nanoject II; Drummond Scientific Company, USA). Electrophysiological experiments were conducted following cRNA injection, with an incubation period of 1–5 days at 16 °C in ND96 buffer.
(§3) A two-electrode voltage clamp (TEVC) system utilizing a GeneClamp 500 amplifier (Molecular Devices, Downingtown, PA, USA) was under the control of a pClamp data acquisition system (Axon Instruments, USA), and pClamp Clampex 10.4 software (Axon Instruments®, USA). This setup was employed to measure currents across the cell membrane. The whole-cell currents from the oocytes were recorded at room temperature (18–22 °C). […]
(§4) The H1R and B2R couples with Gαq/11 proteins, initiating the release of Ca^2+ from the intracellular stores. This rise in intracellular Ca^2+ will activate the Ca^2+-activated Cl^− channels, serving as a sensitive readout.
Procedure for hH1R: as §2, §3, §4
Procedure for hH4R: as §2
A two-electrode voltage clamp (TEVC) system utilizing a GeneClamp 500 amplifier (Molecular Devices, Downingtown, PA, USA) was under the control of a pClamp data acquisition system (Axon Instruments, USA), and pClamp Clampex 10.4 software (Axon Instruments®, USA). This setup was employed to measure currents across the cell membrane. The whole-cell currents from the oocytes were recorded at room temperature (18–22 °C). Two micro-electrodes, comprising voltage and current electrodes, were crafted from borosilicate glass capillaries (1.14 mm outside diameter, 0.7 mm inside diameter), pulled using a microelectrode puller, PUL-1 (World Precision Instruments, USA). […]
Procedure for hTRPA1: as §2, §3
TRPV1 and TRPA1 currents were continuously monitored in a perfusing ND96 solution, following a protocol at −90 mV for 400 s. […]

As for `CCC(=N\O)/C(C)=C/c1ccc(F)cc1` [A967079], in the data set on hTRPA1, the “block of mustard oil effect on TRPA1” value is “is blocked”.

Consider `CCCc1nc(C(F)(F)F)ccc1/C=C/C(=O)N[C@H](C)c1cc(F)c(NS(C)(=O)=O)c(F)c1` [Asivatrep], for which, in [1], the clinical efficacy result is listed as “encouraging results” and the safety profile entry is given as “a favorable safety profile”. As for `CN1CCN(C(=O)c2cc3cc(Cl)ccc3[nH]2)CC1` [JNJ 7777120], in the data set with hH4R, the “block of histamine effect on H4R” value is reported as “The effect of histamine (blue) was blocked”. On to `CC(c1cc2ccccc2s1)N(O)C(N)=O` (stereo not drawn) [Zileuton], for which the “suppression of pain and edema induced by secapin-2” value in data set [2] (5-lipoxygenase blocker, secapin-2 injection) is “suppress pain and edema responses”. Turning to `COc1cc(CNC(=O)CCCC/C=C/C(C)C)ccc1O` [capsaicin], the “TRPV1 current by agonist” value on hTRPV1 is reported as “a current increase”. Take `Oc1cc2c(cc1O)CN(C(=S)NCCc1ccc(Cl)cc1)CCC2` [capsazepine]: the “reduction of caterpillar-induced pain” value in the data set with TRPV1 [3] is reported as “a notable reduction”. Besides, the “block of venom extract-induced TRPV1 current increase” value at hTRPV1 (10 µM capsazepine, 0.4 µg/µL extract + 1 µM capsaicin, holding −90 mV, n ≥ 3) is reported as “the current increase by whole venom setae extract disappeared”.

In the case of `NCCc1c[nH]cn1` [histamine], the “H1R current by agonist” value in the data set on hH1R was “a current increase”. Regarding `COc1ccc2c(c1)c(CC(=O)O)c(C)n2C(=O)c1ccc(Cl)cc1` [indomethacin], in data set [2] (nonspecific antagonist of cyclooxygenase), the “reduction of secapin-2 edema formation and pain sensation” value was “did not show any reducing effects on edema formation and pain sensation”.

`NCCCCN` [putrescine]: the histamine-N-methyltransferase activity entry in [4] is “inhibiting histamine-N-methyltransferase activity”. Also, in the data set on TRPV1 [5] (5 mM putrescine alone), the “TRPV1 activity, putrescine alone” value is “did not induce a detectable TRPV1 activity”. For the same molecule, the “enhancement of capsaicin-evoked TRPV1 current” value in the data set on TRPV1 [5] (5 mM putrescine with 30 nM capsaicin) is “remarkably intensified the current evoked by 30 nM capsaicin”. For the same molecule, in the data set on rat paw, the “duration of sustained edema” value is recorded as 6 h and the mechanical allodynia entry is “induction of mechanical allodynia”. On to “DHETDLDDSNVPRIGRHIIDAPKRGCPEGYRKDHQGKCREVL (disulfide 26-38) [TPTX1-Tp1]”, for which the “effect on TRPV1, peptide alone” value at hTRPV1 (1 µM TPTX1-Tp1 (Fig. 4B), no capsaicin, ramp −120 to +70 mV from −20 mV, ND96) is on record as “does not have an effect on TRPV1 injected oocytes”. At hTRPV1 (TPTX1-Tp1 combined with 0.1 µM capsaicin, ramp −120 to +70 mV from −20 mV, ND96), the “TRPV1 current with capsaicin” value was “induces an increase in the current”.

As for bradykinin, the “B2R conductance by agonist” value in the data set on hB2R is on record as “evoked a change of conductance”.
